# Test results from patent US20210002712A1, “PHOSPHATIDIC ACID SENSOR” (NATIONAL UNIVERSITY CORPORATION CHIBA UNIVERSITY, priority 2019, published 2021).
# Tests used:
# [1] = biological target: PLD2 (Homo sapiens, UniProt O14939); conditions: COS-7 cells, 750 nM for 4 h
# Description: EGFP-PLD2 was coexpressed with either the DsRed monomer alone or DsRed monomer α-Syn-N in COS-7 cells as indicated. After 24 h of transfection, the cells were incubated with 750 nM FIPI in growth medium for 4 h and then fixed and imaged. […] The localization of EGFP-PLD2-WT and DsRed monomer α-Syn-N was quantified using ImageJ software. COS-7 cells were grown and transfected as described in the above section. […] The cells were then fixed in 4% paraformaldehyde. The coverslips were mounted using Vectashield. Fluorescence images were acquired using an Olympus FV1000-D (IX81) confocal laser scanning microscope. GFP fluorescence was excited at 488 nm, and DsRed fluorescence was excited at 543 nm. Images were acquired using FV-10 ASW software.
# [2] = biological target: T1, EGFP-DGKγ (Homo sapiens, UniProt P49619); assay: PMA-induced translocation of EGFP-DGKγ in COS-7 cells; format: cell-based; conditions: 1 μM PMA for 30 min
# T1 construct: expressed in transfected cells; host or cells: COS-7
# T1 sequence (P49619 whole entry): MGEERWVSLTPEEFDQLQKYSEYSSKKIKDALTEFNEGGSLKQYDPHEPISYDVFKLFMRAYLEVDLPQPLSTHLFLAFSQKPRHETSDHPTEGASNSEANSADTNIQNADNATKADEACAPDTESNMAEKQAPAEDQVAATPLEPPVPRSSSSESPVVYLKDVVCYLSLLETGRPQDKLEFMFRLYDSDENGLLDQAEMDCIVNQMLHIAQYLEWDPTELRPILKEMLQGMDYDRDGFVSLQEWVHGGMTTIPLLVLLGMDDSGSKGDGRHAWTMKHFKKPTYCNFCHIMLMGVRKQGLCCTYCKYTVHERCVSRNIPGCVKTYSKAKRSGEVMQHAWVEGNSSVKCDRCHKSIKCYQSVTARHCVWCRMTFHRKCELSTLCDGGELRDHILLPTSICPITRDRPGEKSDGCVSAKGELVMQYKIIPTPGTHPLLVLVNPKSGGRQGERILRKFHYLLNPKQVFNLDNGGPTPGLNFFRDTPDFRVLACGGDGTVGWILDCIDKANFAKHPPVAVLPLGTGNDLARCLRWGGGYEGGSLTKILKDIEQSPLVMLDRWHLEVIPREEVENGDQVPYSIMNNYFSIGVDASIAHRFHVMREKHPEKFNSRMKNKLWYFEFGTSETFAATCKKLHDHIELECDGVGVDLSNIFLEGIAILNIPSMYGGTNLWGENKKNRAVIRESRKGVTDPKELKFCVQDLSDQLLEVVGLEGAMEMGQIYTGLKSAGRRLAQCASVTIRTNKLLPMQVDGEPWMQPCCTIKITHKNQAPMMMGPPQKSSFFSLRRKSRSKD
# Description: FIGS. 19 and 20. […] Representative data from three independent experiments are shown. Scale bars, 20 μm. FIG. 20.
# COS-7 cells were maintained in Dulbecco's modified Eagle's medium supplemented with 10% fetal bovine serum, 100 units/ml penicillin, and 100 μg/ml streptomycin at 37° C. in an atmosphere containing 5% CO2. Cells were transiently transfected using PolyFect reagent as described by the manufacturer.
# The cells were then fixed in 4% paraformaldehyde. The coverslips were mounted using Vectashield. […] Images were acquired using FV-10 ASW software.
# [3] = Liposome cosedimentation assay, 18:1/18:1-PA liposomes; format: binding; conditions: 6×His-SUMO-tagged protein 2.5 μM; PA 150 μM
# Description: FIG. 1. A schematic architecture of α-Syn and its deletion mutants. FIG. 2. The purified SUMO-tagged-α-Syn and its deletion mutant protein (2.5 μM) were incubated with 18:1/18:1-PA or 18:1/18:1-PS liposomes (PA or […]: 150 μM) and then separated by ultracentrifugation. SDS-PAGE (15%) was performed and separated proteins were stained with Coomassie Brilliant Blue. The positions of α-Syn and its mutants are indicated with arrow heads. The amounts of protein in the supernatant (S) and precipitant (P) were quantified by densitometry using ImageJ software. Binding activity was calculated as the percentage of the precipitate band intensity compared to the total band intensities. Values are presented as the mean±S.D. of four independent experiments. **P<0.01 versus the 18:1/18:1-PS liposome.
# FIG. 3. The purified SUMO-tagged-α-Syn-N protein (2.5 μM) was incubated with control (PC and Chol alone), 16:0/16:0-PA, 16:0/18:1-PA, 18:1/18:1-PA, or 18:0/18:0-PA liposomes (PA: 150 μM) and then separated by ultracentrifugation. SDS-PAGE (15%) was performed and separated proteins were stained with Coomassie Brilliant Blue. The position of α-Syn-N is indicated with an arrow head.
# FIG. 4. The amounts of protein in the supernatant (S) and precipitant (P) were quantified by densitometry using ImageJ software. Binding activity was calculated as the percentage of the precipitate band intensity compared to the total band intensities. Values are presented as the mean±S.D. of three independent experiments. #P<0.05, ##P<0.01, ###P<0.005 versus the 18:1/18:1-PA-liposome, *P<0.05, ***P<0.005 versus the control liposome.
# (§1) FIG. 5. The purified SUMO-tagged-α-Syn protein (0.1 μM) was incubated with 18:1/18:1-PA liposomes of the indicated concentrations (0-20 μM) and then separated by ultracentrifugation. SDS-PAGE (15%) was performed and separated proteins were detected with silver staining. The position of α-Syn-N is indicated with an arrow head.
# FIG. 6. The amounts of protein in the precipitant were quantified by densitometry using ImageJ software. Binding activity was calculated as the percentage of the precipitate band intensity compared to the total band intensities (Input). Values are presented as the mean±S.D. of four independent experiments. The Kd was determined using GraphPad Prism 8 (Dissociation-One phase exponential decay).
# as §1, with “7.” for “5.”, “18:1/18:1-PA, 18:1/18:1-PS, 18:1/18:1-PI(4,5)P2, 18:1/18:1-PE and d18:1/18:1-C1P” for “18:1/18:1-PA”, “(20” for “of the indicated concentrations (0-20”, “(15%) analysis” for “(15%)”
# FIG. 8. The amounts of protein in the precipitant were quantified by densitometry using ImageJ software. The PA binding activity of α-Syn-N was set to 100%. Values are presented as the mean±S.D. of three independent experiments. ***P<0.005 versus 18:1/18:1-PA liposome.
# The following lipid mixtures were used: the control liposome: Chol (50 mol %) and 16:0/18:1-PC (50 mol %); and the PA liposome: Chol (50 mol %), 16:0/18:1-PC (35 mol %) and each PA species (15 mol %). The combined dried lipid mixture was resuspended in HEPES buffer. Then, the lipid mixture was vortexed for 1 min. Liposome formation was induced by sonication at 75° C. The purified SUMO-tagged α-Syn and its deletion mutants (2.5 μM) were dissolved in HEPES buffer and incubated with the control or PA-containing liposomes at room temperature for 1 h. Then, the samples were centrifuged at 200,000 g at 4° C. for 1 h. The precipitant was dissolved in HEPES buffer. The supernatant and pellet were analyzed by SDS-PAGE followed by Coomassie Brilliant Blue and silver staining. Quantitative densitometry was performed using ImageJ software. Since the lipid forms a bilayer, half of the actual concentration was considered.
# PLD2, sequence (O14939 whole entry): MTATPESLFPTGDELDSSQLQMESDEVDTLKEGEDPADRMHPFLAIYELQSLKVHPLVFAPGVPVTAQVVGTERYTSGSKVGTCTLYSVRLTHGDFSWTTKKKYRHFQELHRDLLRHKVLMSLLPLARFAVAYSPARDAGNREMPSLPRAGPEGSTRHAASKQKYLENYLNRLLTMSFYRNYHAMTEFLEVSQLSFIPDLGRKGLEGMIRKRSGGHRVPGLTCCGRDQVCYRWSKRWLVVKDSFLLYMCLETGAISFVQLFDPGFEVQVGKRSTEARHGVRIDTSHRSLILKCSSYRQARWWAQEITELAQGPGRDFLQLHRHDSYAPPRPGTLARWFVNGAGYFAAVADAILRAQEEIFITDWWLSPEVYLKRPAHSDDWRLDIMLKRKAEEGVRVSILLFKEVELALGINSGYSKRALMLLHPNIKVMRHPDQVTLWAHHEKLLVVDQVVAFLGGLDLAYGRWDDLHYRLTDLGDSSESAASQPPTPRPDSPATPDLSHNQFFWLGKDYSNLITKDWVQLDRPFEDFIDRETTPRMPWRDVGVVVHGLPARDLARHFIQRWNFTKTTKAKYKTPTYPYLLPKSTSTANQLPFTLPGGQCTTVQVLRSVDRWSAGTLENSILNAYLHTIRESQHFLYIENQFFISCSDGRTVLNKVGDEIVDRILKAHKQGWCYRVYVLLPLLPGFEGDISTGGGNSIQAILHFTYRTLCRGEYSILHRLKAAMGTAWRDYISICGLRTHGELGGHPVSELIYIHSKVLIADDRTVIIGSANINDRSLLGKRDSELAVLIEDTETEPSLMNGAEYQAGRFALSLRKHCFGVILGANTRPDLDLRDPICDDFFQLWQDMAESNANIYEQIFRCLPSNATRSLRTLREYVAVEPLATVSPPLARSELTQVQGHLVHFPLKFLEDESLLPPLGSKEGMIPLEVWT
molecule,measurement,setting,value
"O=C(NCCN1CCC(n2c(=O)[nH]c3ccccc32)CC1)c1cc2cc(F)ccc2[nH]1 [FIPI, 5-fluoro-2-indolyl deschlorohalopemide]",effect on colocalization of EGFP-PLD2 and DsRed-α-Syn-N,[1],markedly attenuated their colocalization
"CCCCCCCCCCCCCC(=O)O[C@@H]1[C@@H](C)[C@@]2(O)[C@@H](C=C(CO)C[C@]3(O)C(=O)C(C)=C[C@@H]23)[C@@H]2C(C)(C)[C@]12OC(C)=O [PMA, phorbol 12-myristate 13-acetate]",translocation of EGFP-DGKγ,[2],led to the translocation of EGFP-DGKγ from the cytoplasm to the plasma membrane
"α-Syn-C: C-terminal region deletion mutant of α-Syn (Lys96-Ala140), 6×His-SUMO-tagged",PA-binding activity (18:1/18:1-PA liposomes),[3],failed to show substantial PA-binding activity
